≈ marks a conversion by molar mass, not a printed value. Read-outs that look alike come from different tables or passages of the source.
What was measured:
Sarcina lutea IAM1009 = experiment: in vitro MIC, agar streak method; assay type: cell-based; conditions: Heart infusion agar
P388 leukaemia = experiment: Antitumor effect against P388 leukaemia in CDF1 mice; assay type: in vivo; conditions: Mus musculus, ip, days 1, 5 and 9, 1×10^6 P388 cells i.p., CDF1 mice, read-out: Mean survival (T/C, %); for response vs control in vivo at 3.75 mg/kg: 3.75 mg/kg/day i.p.; for response vs control in vivo at 7.5 mg/kg: 7.5 mg/kg/day i.p.; for response vs control in vivo at 15 mg/kg: 15.0 mg/kg/day i.p.; for response vs control in vivo at 1.5 mg/kg: 1.5 mg/kg/day i.p.; for response vs control in vivo at 3 mg/kg: 3.0 mg/kg/day i.p.; for response vs control in vivo at 6 mg/kg: 6.0 mg/kg/day i.p.; for response vs control in vivo at 12 mg/kg: 12.0 mg/kg/day i.p.
Method: The anthracycline glycosides provided by the present invention were tested against P388 leukaemia in mice. When CDF1 mice are inoculated with 1×10^6 cells of P388 intraperitoneally and each of the antibiotics is administered intraperitoneally on days 1, 5 and 9, the survival time of the treated mice is prolonged as shown in Table 5 hereinafter.

[1] = test system: Escherichia coli K-12 IAM-1264; experiment: in vitro MIC, agar streak method; assay type: cell-based; conditions: Escherichia coli K-12 IAM-1264, Heart infusion agar
Source text: (§1) | ^(1) Heart infusion agar

[2] = test system: Pseudomonas aeruginosa IFO-12689; experiment: in vitro MIC, agar streak method; assay type: cell-based; conditions: IFO12689, Heart infusion agar
Source text: as §1

[3] = test system: Micrococcus flavus ATCC-10240; experiment: in vitro MIC, agar streak method; assay type: cell-based; conditions: Heart infusion agar
Source text: as §1

[4] = test system: Staphylococcus aureus 209P Stf; experiment: in vitro MIC, agar streak method; assay type: cell-based; conditions: Heart infusion agar
Source text: as §1

[5] = test system: Escherichia coli NIHJ IFO-12734; experiment: in vitro MIC, agar streak method; assay type: cell-based; conditions: Escherichia coli NIHJ IFO-12734, Heart infusion agar
Source text: as §1

[6] = test system: Mycobacterium smegmatis IFO-13167; experiment: in vitro MIC, agar streak method; assay type: cell-based; conditions: Mycolicibacterium smegmatis, IFO13167
Source text: as §1

[7] = test system: Bacillus subtilis IAM-1027; experiment: in vitro MIC, agar streak method; assay type: cell-based; conditions: Bacillus subtilis IAM-1027, Heart infusion agar
Source text: as §1

[8] = test system: Candida tropicalis ATCC-13803; experiment: in vitro MIC, agar streak method; assay type: cell-based; conditions: Candida tropicalis ATCC-13803, Sabouraud dextrose agar
Source text: (§2) | ^(2) Sabouraud dextrose agar

[9] = test system: Candida albicans ATCC-10231; experiment: in vitro MIC, agar streak method; assay type: cell-based; conditions: Candida albicans ATCC-10231, Sabouraud dextrose agar
Source text: as §2

in vivo = conditions: mouse, ip, mice, single i.p. injection, judged 72 hours after, read-out: acute intraperitoneal LD50
Method: The acute intraperitoneal LD50 in mice judged 72 hours after a single injection of the antibiotics is about 90 mg/kg for auramycin C, auramycin D, sulfurmycin C and sulfurmycin D, 40~80 mg/kg for auramycin G and sulfurmycin G and 20~40 mg/kg for auramycin E and sulfurmycin E.

[10] = test system: Staphylococcus aureus 209P IAM-1011; experiment: in vitro MIC, agar streak method; assay type: cell-based; conditions: Heart infusion agar
Bacillus cereus Rol79B = experiment: in vitro MIC, agar streak method; assay type: cell-based; conditions: Heart infusion agar
Source text: as §1

[11] = test system: Staphylococcus epidermidis IFO-12993; experiment: in vitro MIC, agar streak method; assay type: cell-based; conditions: Heart infusion agar
Source text: as §1

[12] = Micrococcus luteus, IAM1009, Sarcina lutea IAM-1009, read-out: MIC
[13] = ATCC10240, Micrococcus flavus ATCC-10240, read-out: MIC
[14] = Staphylococcus epidermidis, IFO12993, Staphylococcus epidermidis IFO-12993, read-out: MIC
[15] = Micrococcus flavus, ATCC10240, Micrococcus flavus ATCC-10240, read-out: MIC
[16] = Staphylococcus aureus, read-out: MIC

SMILES | MIC (Sarcina lutea IAM1009; [12]) | response vs control in vivo at 3.75 mg/kg (P388 leukaemia) | response vs control in vivo at 7.5 mg/kg (P388 leukaemia) | response vs control in vivo at 15 mg/kg (P388 leukaemia) | MIC ([1]; IAM1264, read-out: MIC) | MIC [2] | MIC [3, 13] | MIC [4] | MIC ([5]; IFO12734, read-out: MIC) | MIC ([7]; IAM1027, read-out: MIC) | MIC ([8]; ATCC13803, read-out: MIC) | MIC ([9]; ATCC10231, read-out: MIC) | LD50 at 72 h (in vivo) | MIC ([10]; read-out: MIC) | response vs control in vivo at 1.5 mg/kg (P388 leukaemia) | response vs control in vivo at 3 mg/kg (P388 leukaemia) | response vs control in vivo at 6 mg/kg (P388 leukaemia) | response vs control in vivo at 12 mg/kg (P388 leukaemia) | MIC (Bacillus cereus Rol79B; read-out: MIC) | MIC [11, 14] | other results
COC(=O)C1c2cc3c(c(O)c2C(OC2CC(N(C)C)C(OC4CC(O)C(O)C(C)O4)C(C)O2)CC1(C)O)C(=O)c1c(O)cccc1C3=O (centres unmarked) [Auramycin C] | 6.25 µg/mL (≈ 9.11 µM) | 130% | 141% | 128% | > 50 µg/mL | > 50 µg/mL | 6.25 µg/mL (≈ 9.11 µM) | 6.25 µg/mL (≈ 9.11 µM) | > 50 µg/mL | 6.25 µg/mL (≈ 9.11 µM) | > 50 µg/mL | > 50 µg/mL | ~90 mg/kg | 6.25 µg/mL (≈ 9.11 µM) | – | – | – | – | – | – | response vs control in vivo at 1.88 mg/kg (P388 leukaemia; 1.88 mg/kg/day i.p.): 135%; MIC [6]: 6.25 µg/mL (≈ 9.11 µM)
COC(=O)C1c2cc3c(c(O)c2C(OC2CC(N(C)C)C(O)C(C)O2)CC1(C)O)C(=O)c1c(O)cccc1C3=O (centres unmarked) [Auramycin D] | 6.25 µg/mL (≈ 11.2 µM) | 103% | 149% | 141% | > 50 µg/mL | > 50 µg/mL | 12.5 µg/mL (≈ 22.5 µM) | 12.5 µg/mL (≈ 22.5 µM) | > 50 µg/mL | 12.5 µg/mL (≈ 22.5 µM) | > 50 µg/mL | > 50 µg/mL | ~90 mg/kg | 12.5 µg/mL (≈ 22.5 µM) | – | – | – | – | – | – | MIC ([6]; Mycobacterium smegmatis IFO-13167, Heart infusion agar, read-out: MIC): 3.13 µg/mL (≈ 5.63 µM)
COC(=O)C1c2cc3c(c(O)c2C(OC2CC(N(C)C)C(OC4CC(O)C(OC5CCC(O)C(C)O5)C(C)O4)C(C)O2)CC1(C)O)C(=O)c1c(O)cccc1C3=O (centres unmarked) [Auramycin E] | 3.12 µg/mL (≈ 3.9 µM) | – | – | – | > 50 µg/mL | – | – | – | > 50 µg/mL | 3.12 µg/mL (≈ 3.9 µM) | > 50 µg/mL | > 50 µg/mL | 20 to 40 mg/kg | – | 131% | 139% | 158% | 165% | 0.39 µg/mL (≈ 0.488 µM) | 3.12 µg/mL (≈ 3.9 µM) | MIC [3, 15]: 3.12 µg/mL (≈ 3.9 µM); MIC [10, 16]: 1.56 µg/mL (≈ 1.95 µM)
COC(=O)C1c2cc3c(c(O)c2C(OC2CC(N(C)C)C(OC4CC(O)C(OC5CCC(O)C(C)O5)C(C)O4)C(C)O2)CC1(C)O)C(=O)c1c(O)cccc1C3=O (centres unmarked) [Auramycin F] | – | – | – | – | – | – | – | – | – | – | – | – | – | – | – | – | – | – | – | – | MIC (Sarcina lutea IAM1009; Sarcina lutea IAM-1009): 3.12 µg/mL (≈ 3.9 µM); MIC (Bacillus cereus Rol79B): 0.39 µg/mL (≈ 0.488 µM); MIC ([11]; Staphylococcus epidermidis IFO-12993): 3.12 µg/mL (≈ 3.9 µM); MIC [1]: > 50 µg/mL; MIC ([3]; Micrococcus flavus ATCC-10240): 3.12 µg/mL (≈ 3.9 µM); MIC [5]: > 50 µg/mL; MIC [7]: 3.12 µg/mL (≈ 3.9 µM); MIC [8]: > 50 µg/mL; MIC [9]: > 50 µg/mL; MIC [10]: 3.12 µg/mL (≈ 3.9 µM)
COC(=O)C1c2cc3c(c(O)c2C(OC2CC(N(C)C)C(OC4CCC(OC5CCC(O)C(C)O5)C(C)O4)C(C)O2)CC1(C)O)C(=O)c1c(O)cccc1C3=O (centres unmarked) [Auramycin G] | 6.25 µg/mL (≈ 7.97 µM) | – | – | – | > 50 µg/mL | – | – | – | > 50 µg/mL | 12.5 µg/mL (≈ 15.9 µM) | > 50 µg/mL | > 50 µg/mL | 40 to 80 mg/kg | – | 102% | 109% | 105% | 119% | 0.78 µg/mL (≈ 0.995 µM) | 6.25 µg/mL (≈ 7.97 µM) | MIC [3, 15]: 6.25 µg/mL (≈ 7.97 µM); MIC [10, 16]: 6.25 µg/mL (≈ 7.97 µM)
